Results on three compounds are retold here after patent publication US20260027067A1, “TRIENTINE LIQUID DOSAGE FORMS” (BIOPHORE INDIA PHARMACEUTICALS PVT. LTD., priority 2022, published 2026).

Where a name gives a salt, the structure may show the parent alone.

The conditions of series [1]: crystalline powder; cited from earlier work.
A short description of series [2]: Selection of sweeteners and flavoring agents (formulation trials). To be noted: used as sweetener in trientine tetrahydrochloride oral solution.

Regarding `NCCNCCNCCN` [Trientine dihydrochloride salt, Trientine dihydrochloride], in series [1], the hygroscopicity result is “hygroscopic”. With `O=C1NS(=O)(=O)c2ccccc21.[Na]` [saccharin sodium], the “compatibility of the sweetener in the formulation” value in series [2] is reported as “incompatibility in the form of milky white curdling”. For `Cl.Cl.Cl.Cl.NCCNCCNCCN` [Trientine tetrahydrochloride salt, Trientine tetrahydrochloride], in series [1], the hygroscopicity entry was “not hygroscopic”.
